Among the data in US8450308B2 (Vitae Pharmaceuticals, Inc., priority 2008, dated 2013) are IC50 values, retold here.

The structures appear in SMILES notation. pIC50: −log10 of the molar value.

A short description of this test: BACE cell assay: soluble Amyloid Beta 1-40 (Aβ 1-40) in culture media of H4-APPsw cells. The test is classed as cell-based. The conditions noted are these: in vitro cell activity, H4-APPsw cells, secreted Aβ 1-40, overnight treatment; read-out: IC50. The protocol:
H4 neuroglioma cell line that stably expresses Amyloid Precursor Protein (APP) containing the KM-NL Swedish mutation (H4-APPsw) was generated. For the assay, cells are treated overnight in the presence of inhibitor and the culture media are subjected to ELISA analysis of soluble Amyloid Beta 1-40 (Aβ 1-40).
H4 neuroglioma cell line was cultured in DMEM with 10% FBS and 1% penicillin/streptomycin (Culture Medium) at 37° C., 5% CO2. […] 24 hrs after transfection, the cells were replaced into three new plates (150 mm) in fresh Culture Medium with 250 ug/ml Zeocin. […] The levels of APPsw expression were analyzed by immunoblotting and the production of Aβ 1-40 was detected by ELISA of culture supernatants. The selected clones are maintained in Culture Medium with 250 μg/ml Zeocin and routinely split in 3-4 days to maintain 20-80% confluence.
Split cells. Split H4-APPsw cells in Culture Medium and culture overnight such that cells will be ˜80% confluent next morning.
Create Compound Dilution Plate. After determining the desired final concentration of compound to be tested, create a 500× dilution plate. Add DMSO, but not inhibitor, to each well of Column 1. […] Add compounds of interest at 500× desired final concentration to wells A3-A10. Add DMSO, but not inhibitor, to each well of Columns 11 and 12. Dilute contents of Row A 1:3 in Row B. then continue through Rows C—H.
Create Media Plate. To create a 2× solution of compound in media, add 996 μL Culture Medium to each well of a 96-well 2 ml deep well plate (Media Plate) in biosafety hood. Add 4 μL 5 mM control compound to Media Plate wells A1-D1 for determination of full inhibition.
Add media to Cell Plate. With a multichannel pipettor, mix each well of Media Plate several times to insure homogeneity. Add 100 μL of mixture to Black polymer bottom P-D-L plates. Next, place Medium Plate and Cell Plate in the incubator.
Add cells to Cell Plate. Trypsinize and count H4-APPsw cells. Dilute cells 6×10^5 cells/ml in Culture Medium and remove Cell Plate from incubator. Vortex cells to homogeneity, then using a multichannel repeating pipettor, add 100 μL cell suspension to Cell Plate, adding cells from Row H to Row A. Place Cell Plate in incubator.
Change media in Cell Plate. After 5 h, check Cell Plate by microscope to insure cells are attached. In culture hood, remove media from Cell Plate using multichannel repeating pipettor. Add 100 μl Culture Medium to each well. Remove Media Plate from incubator and mix with pipettor as previous. Add 100 μl from each well of Media Plate to corresponding well in Cell Plate. Place Cell Plate in incubator overnight.
Perform ELISA to determine levels of secreted Aβ 1-40. After 16 h incubation, spin Cell Plate for 8 min at 1200 rpm. The primary reading of Aβ 1-40 levels is done using PerkinElmer AlphaLISA technology. Follow the manufacturer's protocol for performing AlphaLISA in a white ½ area Optiwell plate using Row 12 for peptide standard (1:2 dilutions, starting at 15 ng/ml). Data are acquired using PerkinElmer Fusion-Alpha FP-HT, Alpha protocol (Count Time 0.6 s, Count Time Ratio 30%:70%).
Export data from Fusion using Columnar Report format into a separate file for each plate. Upload data into Activity Base using RIA-DOSE-RESPONSE protocol (Version 1). Data from at least eight doses were fitted to a four parameter logistical model using XLfit software to determine potency.
As a reminder, the pIC50 is −log10 of the IC50, conventionally taken in molar units. As to `CN1C(=O)C2(CC(C3CCOC(C)(C)C3)Oc3ccc(-c4cc(F)cc(F)c4F)cc32)N=C1N` (centres unmarked) [Compound 229], the pIC50 was 6.30 to 7.00. For `CN1C(=O)C2(C[C@H]([C@H]3CCOC(C)(C)C3)Oc3ccc(-c4cccc(C#N)c4)cc32)N=C1N` (some centres unmarked) [Compound 230] the value was 7.00 to 9.00; for `CN1C(=O)C2(C[C@H](C3CCOC(C)(C)C3)Oc3ccc(-c4cc(F)cc(F)c4)cc32)N=C1N` (some centres unmarked) [Compound 231], 6.30 to 7.00; for `CC1CC[C@@]2(CO1)C[C@]1(N=C(N)N(C)O1)c1cc(-c3cc(F)cc(Cl)c3)ccc1O2` (some centres unmarked) [Compound 232], 6.00 to 6.30. For `CN1C(=O)[C@@]2(C[C@]3(CCCOC3)Oc3ccc(-c4ccc(F)c(Cl)c4)cc32)N=C1N` [Compound 233], the pIC50 was 6.30 to 7.00. Regarding `COc1cc(Cl)cc(-c2ccc3c(c2)C2(CC4(CCCc5ccccc5C4)O3)N=C(N)N(C)O2)c1` (centres unmarked) [Compound 234], the pIC50 was 5.30 to 6.00.

Regarding `CN1O[C@@]2(C[C@@H](C3CCCc4ccccc43)Oc3ccc(-c4ccc(F)c(Cl)c4)cc32)N=C1N` (some centres unmarked) [Compound 235], the pIC50 is 5.30 to 6.00. As to `CC1CC[C@@]2(CO1)C[C@]1(N=C(N)N(C)O1)c1cc(-c3cccc(Cl)c3)ccc1O2` (some centres unmarked) [Compound 236], the pIC50 is 6.00 to 6.30. For `CN1O[C@@]2(C[C@H]([C@@H]3CCOC(C)(C)C3)Oc3ccc(-c4cccc(C#N)c4)cc32)N=C1N` [Compound 237] the value was 6.00 to 6.30. For `CN1OC2(CC3(CCCc4ccccc4C3)Oc3ccc(C#CC4CC4)cc32)N=C1N` (centres unmarked) [Compound 238] the value was 5.30 to 6.00; for `CN1OC2(CC(C3CCCc4ccccc43)Oc3ccc(-c4cccc(Cl)c4)cc32)N=C1N` (centres unmarked) [Compound 239], 5.30 to 6.00. For `CN1OC2(CC(C3CCCc4ccccc43)Oc3ccc(-c4cc(F)cc(Cl)c4)cc32)N=C1N` (centres unmarked) [Compound 240] the value was 5.00 to 5.30; for `CN1C(=O)C2(C[C@H](C3CCOC(C)(C)C3)Oc3ccc(-c4cccc(F)c4)cc32)N=C1N` (some centres unmarked) [Compound 241], 6.30 to 7.00; for `CN1OC2(CC3(CCCc4ccccc4C3)Oc3ccc(-c4cc(F)cc(C(F)(F)F)c4)cc32)N=C1N` (centres unmarked) [Compound 242], 5.30 to 6.00. As to `CN1C(=O)[C@@]2(C[C@]3(CCCOC3)Oc3ccc(-c4cccc(C(F)(F)F)c4)cc32)N=C1N` [Compound 243], the pIC50 was 6.30 to 7.00. For `Cc1cccc(-c2ccc3c(c2)C2(CC(C4CCOC(C)(C)C4)O3)N=C(N)N(C)C2=O)c1F` (centres unmarked) [Compound 244] the value was 6.30 to 7.00; for `CN1C(=O)[C@@]2(C[C@@H](C3CCCc4ccccc43)Oc3ccc(-c4cccc(C#N)c4)cc32)N=C1N` (some centres unmarked) [Compound 245], 6.00 to 6.30. `CN1O[C@@]2(C[C@H](C3CCCc4ccccc43)Oc3ccc(-c4cccc(C#N)c4)cc32)N=C1N` (some centres unmarked) [Compound 247]: the pIC50 was 6.00 to 6.30.

Turning to `CN1OC2(CC(C3CCOC(C)(C)C3)Oc3ccc(-c4cc(C#N)cc(C#N)c4)cc32)N=C1N` (centres unmarked) [Compound 248], the pIC50 is 6.30 to 7.00. For `CC1CC[C@@]2(CO1)C[C@]1(N=C(N)N(C)O1)c1cc(-c3ccc(F)c(Cl)c3)ccc1O2` (some centres unmarked) [Compound 249] the value was 5.30 to 6.00; for `CN1C(=O)[C@@]2(C[C@]3(CCCOC3)Oc3ccc(-c4cc(F)cc(C#N)c4)cc32)N=C1N` [Compound 250], 6.30 to 7.00; for `CN1OC2(C[C@@]3(CCCc4ccccc4C3)Oc3ccc(-c4cccc(C#N)c4)cc32)N=C1N` (some centres unmarked) [Compound 251], 6.30 to 7.00. For `CN1O[C@@]2(C[C@H](C3CCCc4ccccc43)Oc3ccc(-c4ccc(F)c(Cl)c4)cc32)N=C1N` (some centres unmarked) [Compound 252] the value was 5.30 to 6.00; for `Cc1cc(Br)cc(-c2ccc3c(c2)C2(CC4(CCCOC4)O3)N=C(N)N(C)C2=O)c1F` (centres unmarked) [Compound 253], 6.00 to 6.30; for `CN1C(=O)C2(C[C@H](C3CCOC(C)(C)C3)Oc3ccc(-c4ccc(F)c(F)c4)cc32)N=C1N` (some centres unmarked) [Compound 254], 6.30 to 7.00. For `CN1C(=O)[C@@]2(C[C@]3(CCCOC3)Oc3ccc(-c4cc(C#N)cc(C#N)c4)cc32)N=C1N` [Compound 255] the value was 6.30 to 7.00.
